The results in this text go back to ChEMBL document CHEMBL1147478, “Phosphonate inhibitors of antigen 85C, a crucial enzyme involved in the biosynthesis of the Mycobacterium tuberculosis cell wall” (Bioorg Med Chem Lett, 2004).

As usually defined, the IC50 is the concentration needed to halve the response being measured.

The experiment has as its target Diacylglycerol acyltransferase/mycolyltransferase Ag85C (Mycobacterium tuberculosis, UniProt P9WQN9). Put plainly: In vitro concentration required to inhibit antigen 85C mycolyltransferase activity in Mycobacterium tuberculosis.

Sequence of Diacylglycerol acyltransferase/mycolyltransferase Ag85C (P9WQN9 whole entry): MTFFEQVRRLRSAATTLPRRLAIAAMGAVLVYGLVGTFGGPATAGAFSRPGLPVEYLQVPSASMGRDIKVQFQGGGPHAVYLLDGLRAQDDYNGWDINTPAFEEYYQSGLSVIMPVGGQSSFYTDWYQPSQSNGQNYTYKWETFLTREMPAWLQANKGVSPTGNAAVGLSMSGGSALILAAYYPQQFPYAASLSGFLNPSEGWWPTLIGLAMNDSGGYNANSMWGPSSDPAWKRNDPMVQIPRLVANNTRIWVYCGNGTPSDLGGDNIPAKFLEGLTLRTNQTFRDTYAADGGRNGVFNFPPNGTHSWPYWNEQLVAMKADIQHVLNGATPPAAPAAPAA

`CCCCCCCP(=O)(OCC)OCN1C(=O)c2ccccc2C1=O` (configuration not stated) gave an IC50 of 1.31 µM. This lies in the single-digit micromolar range.

Molecule `CCCCCCCCCCCCCCP(=O)(OCC)OCN1C(=O)c2ccccc2C1=O` (configuration not stated) had a 50% inhibitory concentration (IC50) of 41 µM. `CCCCP(=O)(OCC)OCc1cccc(Oc2ccccc2)c1` (configuration not stated) had an IC50 of 2.01 µM. This IC50 is about 20-fold lower than that of the molecule before.

`CCCCCCP(=O)(OCC)OCc1cccc(Oc2ccccc2)c1` (configuration not stated) showed an IC50 of 42.6 µM. This IC50 is about 21-fold higher than that of the molecule before. For `CCCCCCCCCP(=O)(OCC)OCCN1C(=O)c2ccccc2C1=O` (configuration not stated), the midpoint of inhibition, the IC50, lay at 25.7 µM.

For the molecule `CCCCCCCCCCCCCCP(=O)(OCC)OCc1cccc(Oc2ccccc2)c1` (configuration not stated), the IC50 was determined as 862 µM. For the molecule `CCCCCCCP(=O)(OCC)OCc1cccc(Oc2ccccc2)c1` (configuration not stated), the IC50 came to 21 µM. With `CCCCCCCCCP(=O)(OCC)OCc1cccc(Oc2ccccc2)c1` (configuration not stated), half-maximal inhibition (IC50) was put at 14.8 µM. This IC50 and that of the molecule before are within 1.5-fold of each other. For the molecule `CCCCCCCP(=O)(O)OCCN1C(=O)c2ccccc2C1=O`, the IC50 is 1.47 µM. This IC50 lies about 10-fold lower than the previous one. The molecule `CCCCCCCCCP(=O)(OCC)OCN1C(=O)c2ccccc2C1=O` (configuration not stated) yielded an IC50 of 87.1 µM. Against the preceding molecule, the IC50 is about 59-fold higher.

`CCCCP(=O)(OCC)OCN1C(=O)c2ccccc2C1=O` (configuration not stated) came in with an IC50 of 10 µM. `CCCCP(=O)(OCC)OCCN1C(=O)c2ccccc2C1=O` (configuration not stated) returned an IC50 of 50.7 µM. This IC50 lies about 5.1-fold higher than the previous one.

For `CCCCCCP(=O)(O)OCCN1C(=O)c2ccccc2C1=O`, the IC50 was 4.39 µM. As for `CCCCP(=O)(O)OCC` [ETHYL HYDROGEN BUTYLPHOSPHONATE], the IC50 was found to be 431 µM.

For `CCCCCCCP(=O)(O)OCC` [ETHYL HYDROGEN HEPTYLPHOSPHONATE], the IC50 was found to be 1.06 µM. The figure for `CCCCCCP(=O)(O)OCC` [ETHYL HYDROGEN HEXYLPHOSPHONATE] is 3.56 µM. The molecule `CCCCCCCCCP(=O)(O)OCC` [ETHYL HYDROGEN NONYLPHOSPHONATE] displayed an IC50 of 471 µM.
